Converted amounts (≈) assume the structure as drawn.
Legend:
[1] = Inhibition of Plasmodium falciparum DHODH expressed in Escherichia coli BL21-DE3 using L-dihydroorotate as substrate by steady-state DCIP method
[2] = Inhibition of Plasmodium vivax DHODH expressed in Escherichia coli BL21-DE3 using L-dihydroorotate as substrate by steady-state DCIP method
[3] = target: Dihydroorotate dehydrogenase (quinone), mitochondrial (Rattus norvegicus, UniProt Q63707); assay: Inhibition of rat DHODH up to 100 uM; settings: up to 100 µM
Chain of Dihydroorotate dehydrogenase (quinone), mitochondrial (Rattus norvegicus, UniProt Q63707) (Q63707 whole entry): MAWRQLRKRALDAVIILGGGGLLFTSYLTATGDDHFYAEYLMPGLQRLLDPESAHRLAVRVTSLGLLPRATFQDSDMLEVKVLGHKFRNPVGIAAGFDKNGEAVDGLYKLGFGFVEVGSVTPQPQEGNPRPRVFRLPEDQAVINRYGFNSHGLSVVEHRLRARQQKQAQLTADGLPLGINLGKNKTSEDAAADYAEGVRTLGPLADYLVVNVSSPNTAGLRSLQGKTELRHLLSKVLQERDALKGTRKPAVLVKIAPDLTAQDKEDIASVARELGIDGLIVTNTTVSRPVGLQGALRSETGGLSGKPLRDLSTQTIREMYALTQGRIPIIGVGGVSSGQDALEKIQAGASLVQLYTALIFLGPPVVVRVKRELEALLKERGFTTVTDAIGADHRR

[4] = target: Dihydroorotate dehydrogenase (quinone), mitochondrial (Mus musculus, UniProt O35435); assay: Inhibition of mouse DHODH up to 100 uM; settings: up to 100 µM
Chain of Dihydroorotate dehydrogenase (quinone), mitochondrial (Mus musculus, UniProt O35435) (O35435 whole entry): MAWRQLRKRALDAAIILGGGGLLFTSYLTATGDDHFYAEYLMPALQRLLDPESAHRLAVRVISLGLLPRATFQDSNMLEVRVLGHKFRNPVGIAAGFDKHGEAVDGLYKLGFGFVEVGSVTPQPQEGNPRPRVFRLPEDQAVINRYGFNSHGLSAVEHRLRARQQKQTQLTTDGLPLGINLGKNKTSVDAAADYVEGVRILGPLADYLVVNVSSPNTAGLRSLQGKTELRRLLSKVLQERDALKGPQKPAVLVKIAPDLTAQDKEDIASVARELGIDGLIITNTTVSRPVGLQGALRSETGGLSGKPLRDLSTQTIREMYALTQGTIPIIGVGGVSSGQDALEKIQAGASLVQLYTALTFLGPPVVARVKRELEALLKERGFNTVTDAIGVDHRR

[5] = Inhibition of dog DHODH up to 100 uM; parameters: species or system Canis lupus familiaris; settings: up to 100 µM
L1210 = assay: Cytotoxicity against mouse L1210 cells; format: cell-based
HepG2 = assay: Cytotoxicity against human HepG2 cells; format: cell-based
Albumin = Albumin (Bos taurus, UniProt P02769); assay: Binding affinity to bovine serum albumin by Albumax assay; format: ADME; settings: cattle, isolated protein
Chain of Albumin (P02769 whole entry): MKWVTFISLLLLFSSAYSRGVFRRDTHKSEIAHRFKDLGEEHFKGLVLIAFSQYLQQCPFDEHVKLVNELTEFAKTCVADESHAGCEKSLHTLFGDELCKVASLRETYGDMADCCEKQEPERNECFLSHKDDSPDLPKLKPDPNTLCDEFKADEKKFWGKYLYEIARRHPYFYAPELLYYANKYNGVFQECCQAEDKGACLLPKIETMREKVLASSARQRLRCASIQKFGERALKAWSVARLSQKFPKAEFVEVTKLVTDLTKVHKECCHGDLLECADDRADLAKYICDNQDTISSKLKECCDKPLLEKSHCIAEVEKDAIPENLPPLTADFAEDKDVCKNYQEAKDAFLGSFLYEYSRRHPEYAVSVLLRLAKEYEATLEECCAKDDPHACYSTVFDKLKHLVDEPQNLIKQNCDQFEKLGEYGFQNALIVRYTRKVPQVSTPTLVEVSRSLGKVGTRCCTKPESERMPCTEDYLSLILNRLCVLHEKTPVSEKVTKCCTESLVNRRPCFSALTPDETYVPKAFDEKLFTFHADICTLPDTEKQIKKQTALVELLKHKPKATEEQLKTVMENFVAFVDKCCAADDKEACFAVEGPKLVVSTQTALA

[6] = Binding affinity to microsome (unknown origin); format: ADME; settings: microsomes
[7] = Intrinsic clearance in mouse liver microsomes at 1 uM measured up to 4 hrs by LC-MS analysis; format: ADME, Microsome
[8] = Unbound intrinsic clearance in mouse liver microsomes at 1 uM measured up to 4 hrs by LC-MS analysis; format: ADME, Microsome
[9] = Half life in Swiss mouse at 20 mg/kg, po measured up to 24 hrs by LC-MS analysis; format: ADME, organism-based; settings: in vivo
[10] = Tmax in Swiss mouse at 20 mg/kg, po measured up to 24 hrs by LC-MS analysis; format: ADME, organism-based; settings: in vivo
[11] = Cmax in Swiss mouse at 20 mg/kg, po measured up to 24 hrs by LC-MS analysis; format: ADME, organism-based; parameters: route oral, dose 20 mg/kg, time <=24; settings: in vivo
[12] = AUC (0 to infinity) in Swiss mouse at 20 mg/kg, po measured up to 24 hrs by LC-MS analysis; format: ADME, organism-based; parameters: route oral, dose 20 mg/kg, time <=24; settings: in vivo
[13] = Plasma clearance in Sprague-Dawley rat at […], iv measured up to 24 hrs; format: ADME, organism-based; settings: dose 2.8 mg/kg
[14] = Volume of distribution at steady state in Sprague-Dawley rat at […], iv measured up to 24 hrs; format: ADME, organism-based; settings: in vivo, dose 2.8 mg/kg, read-out: Vdss
[15] = Apparent half life in Sprague-Dawley rat at 32 mg/kg, po measured up to 24 hrs; format: ADME, organism-based; settings: in vivo, read-out: t1/2(app) (converted)
[16] = Tmax in Sprague-Dawley rat at 32 mg/kg, po measured up to 24 hrs; format: ADME, organism-based; settings: in vivo
[17] = Cmax in Sprague-Dawley rat at 32 mg/kg, po measured up to 24 hrs; format: ADME, organism-based; parameters: route oral, dose 32 mg/kg, time <=24; settings: in vivo
[18] = AUC (0 to infinity) in Sprague-Dawley rat at 32 mg/kg, po measured up to 24 hrs; format: ADME, organism-based; parameters: route oral, dose 32 mg/kg, time <=24; settings: in vivo
[19] = Oral bioavailability in Sprague-Dawley rat at 32 mg/kg measured up to 24 hrs; format: ADME, organism-based; settings: in vivo
Plasmodium falciparum [20] = assay: Antiplasmodial activity against asexual blood stage Plasmodium falciparum D10 expressing yeast DHODH infected in human erythrocytes assessed as parasite killing; format: functional, organism-based
Plasmodium falciparum [21] = assay: Antiplasmodial activity against asexual blood stage Plasmodium falciparum D10 expressing yeast DHODH infected in human erythrocytes assessed as parasite killing in presence of proguanil; format: functional, organism-based
Plasmodium falciparum [22] = assay: Antiplasmodial activity against Plasmodium falciparum 3D7 Uganda infected in human erythrocytes assessed as parasite killing using albumax media measured after 72 hrs by SYBR Green assay; format: functional, organism-based; settings: 3D7, 72 h
Plasmodium falciparum [23] = assay: Antiplasmodial activity against Plasmodium falciparum Dd2 Uganda infected in human erythrocytes assessed as parasite killing using albumax media measured after 72 hrs by SYBR Green assay; format: functional, organism-based; settings: Dd2, 72 h
Plasmodium falciparum [24] = assay: Antiplasmodial activity against Plasmodium falciparum Uganda field isolated from patients infected in human erythrocytes assessed as parasite killing using albumax media measured after 72 hrs by SYBR Green assay; format: functional, organism-based
Cytochrome P450 2C8 = target: T1, Cytochrome P450 2C8 (Homo sapiens, UniProt P10632)
T1 sequence (P10632 whole entry): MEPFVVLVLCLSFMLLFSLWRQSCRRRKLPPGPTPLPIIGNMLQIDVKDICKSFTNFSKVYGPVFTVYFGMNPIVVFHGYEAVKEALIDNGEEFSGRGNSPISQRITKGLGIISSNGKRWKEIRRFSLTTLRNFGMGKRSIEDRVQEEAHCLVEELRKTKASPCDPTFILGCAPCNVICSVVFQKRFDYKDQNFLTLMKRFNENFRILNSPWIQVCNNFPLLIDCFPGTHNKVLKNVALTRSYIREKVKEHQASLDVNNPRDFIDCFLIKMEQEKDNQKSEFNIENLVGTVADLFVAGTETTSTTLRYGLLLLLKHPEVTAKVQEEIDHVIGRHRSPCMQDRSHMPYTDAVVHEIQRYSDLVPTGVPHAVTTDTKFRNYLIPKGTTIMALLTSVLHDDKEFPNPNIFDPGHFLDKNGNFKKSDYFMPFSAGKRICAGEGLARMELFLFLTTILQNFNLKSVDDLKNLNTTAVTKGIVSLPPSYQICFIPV

Cytochrome P450 3A4 = Cytochrome P450 3A4 (Homo sapiens, UniProt P08684)
Chain of Cytochrome P450 3A4 (P08684 whole entry): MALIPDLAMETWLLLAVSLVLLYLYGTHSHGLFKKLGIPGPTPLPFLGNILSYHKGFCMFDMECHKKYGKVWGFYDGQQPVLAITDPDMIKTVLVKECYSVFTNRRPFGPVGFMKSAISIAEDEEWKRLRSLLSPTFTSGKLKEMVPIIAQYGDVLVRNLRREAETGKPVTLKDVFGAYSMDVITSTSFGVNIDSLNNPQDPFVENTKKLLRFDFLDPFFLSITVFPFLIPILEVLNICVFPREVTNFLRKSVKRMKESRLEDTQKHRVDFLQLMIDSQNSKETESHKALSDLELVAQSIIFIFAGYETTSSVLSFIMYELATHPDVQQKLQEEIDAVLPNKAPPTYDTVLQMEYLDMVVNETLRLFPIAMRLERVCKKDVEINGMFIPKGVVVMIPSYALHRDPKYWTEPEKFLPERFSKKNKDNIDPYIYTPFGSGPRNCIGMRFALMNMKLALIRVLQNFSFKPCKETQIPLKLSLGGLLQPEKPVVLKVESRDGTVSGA

[25] = buffer, pH 1.6, 1 h
[26] = simulated gi fluid, pH 6.5, 5 h
[27] = simulated gi fluid, pH 5.8, 5 h
[28] = human, plasma
[29] = rat, plasma
[30] = mouse, plasma
[31] = Plasma clearance in Swiss mouse at […], iv measured up to 24 hrs by LC-MS analysis; format: ADME, organism-based; settings: dose 2.8 mg/kg
[32] = Volume of distribution at steady state in Swiss mouse at […], iv measured up to 24 hrs by LC-MS analysis; format: ADME, organism-based; settings: in vivo, dose 2.8 mg/kg, read-out: Vdss
[33] = Oral bioavailability in Swiss mouse at 20 mg/kg measured up to 24 hrs by LC-MS analysis; format: ADME, organism-based; settings: in vivo
[34] = Apparent half life in Sprague-Dawley rat at 28 mg/kg, po measured up to 24 hrs; format: ADME, organism-based; settings: in vivo, read-out: t1/2(app) (converted)
[35] = Tmax in Sprague-Dawley rat at 28 mg/kg, po measured up to 24 hrs; format: ADME, organism-based; settings: in vivo
[36] = Cmax in Sprague-Dawley rat at 28 mg/kg, po measured up to 24 hrs; format: ADME, organism-based; parameters: route oral, dose 28 mg/kg, time <=24; settings: in vivo
[37] = AUC (0 to infinity) in Sprague-Dawley rat at 28 mg/kg, po measured up to 24 hrs; format: ADME, organism-based; parameters: route oral, dose 28 mg/kg, time <=24; settings: in vivo
[38] = Oral bioavailability in Sprague-Dawley rat at 28 mg/kg measured up to 24 hrs; format: ADME, organism-based; settings: in vivo
Plasmodium falciparum [39] = assay: Antiplasmodial activity against asexual blood stage chloroquine and pyrimethamine-resistant Plasmodium falciparum Dd2 infected in human erythrocytes assessed as parasite killing; format: functional, organism-based
Plasmodium berghei = assay: Antiplasmodial activity against liver stage Plasmodium berghei berghei-ANKA-GFP-Luc-SMCON (Pb-Luc) assessed as parasite killing infected in HepG2-A16-CD8IEGF cells; format: functional, organism-based
Plasmodium falciparum [40] = test system: Plasmodium falciparum
[41] = human, caco-2, pH 7.4
[42] = human, caco-2, pH 7.4; remark: listed apart in the source

| SMILES | IC50 [2] [nM] | inhibition (INH) [3] | inhibition (INH) [4] | inhibition (INH) [5] | Activity (L1210) | Activity (HepG2) | Activity (Albumin) [%] | Activity [6] [%] | Intrinsic clearance [7] [µL/min/mg] | CL free [8] [µL/min/mg] | half-life [9] [h] | Tmax [10] [h] | Cmax [11] [µM] | AUC(0-inf) [12] [µM·h] | PPB [28] [%] | PPB [29] [%] | PPB [30] [%] | further results |
| --- | --- | --- | --- | --- | --- | --- | --- | --- | --- | --- | --- | --- | --- | --- | --- | --- | --- | --- |
| Cc1c(Cc2ccc(C(F)(F)F)nc2)c[nH]c1C(=O)NC(C)c1cnn(C)c1 (stereo in doubt; form 1) | 3.9 | Not Active | Not Active | Not Active | Non-Toxic | Non-Toxic | 49.5 | 44.8 | 41 | 75 | 3.5 | 1 | 36 | 217 | 83 | 95.1 | 93.6 | IC50 [1]: 46 nM; clearance at 24 h [13]: 2.4 mL/min/kg; Vd at 24 h [14]: 0.87 L/kg; half-life [15]: 3.7 h; Tmax [16]: 3.5 h; Cmax [17]: 35 µM; AUC(0-inf) [18]: 360 µM·h; bioavailability [19]: 61%; EC50 (Plasmodium falciparum [20]): > 10000 nM; EC50 (Plasmodium falciparum [21]): > 10000 nM; EC50 (Plasmodium falciparum [22]): 6.2 nM; EC50 (Plasmodium falciparum [23]): 5.9 nM; EC50 (Plasmodium falciparum [24]): 9.8 nM; IC50 (Cytochrome P450 2C8): > 20000 nM; TDI (Cytochrome P450 3A4): Not Active; solubility [25]: 113 µg/mL (≈ 289 µM); solubility [26]: 60 µg/mL (≈ 153 µM); solubility [27]: 158 µg/mL (≈ 404 µM) |
| Cc1cc(C(C)NC(=O)c2[nH]cc(Cc3ccc(C(F)(F)F)nc3)c2C)no1 (stereo in doubt; form 1) | 7.2 | Not Active | Not Active | Not Active | Non-Toxic | Non-Toxic | 75 | 43.3 | 63 | 111 | 2.3 | 1 | 13 | 66 | 94.7 | 93.7 | 92.2 | clearance at 24 h [31]: 7.7 mL/min/kg; Vd at 24 h [32]: 1.4 L/kg; bioavailability [33]: 61%; half-life [34]: 4.1 h; Tmax [35]: 4.3 h; Cmax [36]: 16 µM; AUC(0-inf) [37]: 160 µM·h; bioavailability [38]: 43%; EC50 (Plasmodium falciparum [39]): 8.7 nM; EC50 (Plasmodium berghei): 8.3 nM; EC50 (Plasmodium falciparum [40]): 9.3 nM; Papp [41]: 48 10^-6 cm/s; Papp [42]: 57 10^-6 cm/s |
